Legend:
Assay in all cases: relative viability (nuclei count vs DMSO), 5 days (fraction); higher = more cells survive
EMC-BAC-2 = test system: EMC-BAC-2
Outline: (§1)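 Values are medians from duplicate plates. Each reflects relative viability, defined as the nuclei count of treated wells over that of vehicle wells. Lung cancer cell lines in 1536-well plates were pin-tool dosed one day after seeding with one drug alone or with a fixed anchor-drug dose plus five library-drug doses (not always all listed) in √10 steps, then fixed, stained and imaged at 4× after 5 days.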

LU99A = test system: LU99A
Outline: as §1

SW 1573 = test system: SW 1573
Outline: as §1

HCC-827 = test system: HCC-827
Outline: as §1

PC-14 = test system: PC-14
Outline: as §1

LCLC-103H = test system: LCLC-103H
Outline: as §1

NCI-H2126 = test system: NCI-H2126
Outline: as §1

NCI-H2342 = test system: NCI-H2342
Outline: as §1

SK-LU-1 = test system: SK-LU-1
Outline: as §1

NCI-H1666 = test system: NCI-H1666
Outline: as §1

HCC-78 = test system: HCC-78
Outline: as §1

LXF-289 = test system: LXF-289
Outline: as §1

EPLC-272H = test system: EPLC-272H
Outline: as §1

ChaGo-K-1 = test system: ChaGo-K-1
Outline: as §1

EKVX = test system: EKVX
Outline: as §1

NCI-H322M = test system: NCI-H322M
Outline: as §1

LK-2 = test system: LK-2
Outline: as §1

NCI-H1975 = test system: NCI-H1975
Outline: as §1

NCI-H1563 = test system: NCI-H1563
Outline: as §1

NCI-H23 = test system: NCI-H23
Outline: as §1

RERF-LC-KJ = test system: RERF-LC-KJ
Outline: as §1

NCI-H2405 = test system: NCI-H2405
Outline: as §1

SW 900 = test system: SW 900
Outline: as §1

Work on `CCN(CC)CCCCNc1ncc2cc(-c3cc(OC)cc(OC)c3)c(NC(=O)NC(C)(C)C)nc2n1` + N=C(N)NC(=N)NCCc1ccccc1 [Phenformin] (partner 250 µM) yielded a relative viability (EMC-BAC-2; first compound 0.01 µM) of 0.525, a relative viability (EMC-BAC-2; first compound 0.03162 µM) of 0.586 and a relative viability (EMC-BAC-2; first compound 0.1 µM) of 0.562. For the same molecule, the relative viability (EMC-BAC-2; first compound 0.3162 µM) was 0.592, the relative viability (EMC-BAC-2; first compound 1 µM) was 0.418 and the relative viability (LU99A; first compound 0.01 µM) was 0.764. The relative viability (LU99A; first compound 0.03162 µM) was 0.841, the relative viability (LU99A; first compound 0.1 µM) was 1.04 and the relative viability (LU99A; first compound 0.3162 µM) was 0.772. The relative viability (LU99A; first compound 1 µM) was 0.756, the relative viability (SW 1573; first compound 0.01 µM) was 0.351 and the relative viability (SW 1573; first compound 0.03162 µM) was 0.372. For the same molecule, the relative viability (SW 1573; first compound 0.1 µM) was 0.394, the relative viability (SW 1573; first compound 0.3162 µM) was 0.36 and the relative viability (SW 1573; first compound 1 µM) was 0.36. It also gave a relative viability (HCC-827; first compound 0.01 µM) of 0.437, a relative viability (HCC-827; first compound 0.03162 µM) of 0.422 and a relative viability (HCC-827; first compound 0.1 µM) of 0.417. The relative viability (HCC-827; first compound 0.3162 µM) was 0.467, the relative viability (HCC-827; first compound 1 µM) was 0.426 and the relative viability (PC-14; first compound 0.01 µM) was 0.439. For the same molecule, the relative viability (PC-14; first compound 0.03162 µM) was 0.426, the relative viability (PC-14; first compound 0.1 µM) was 0.661 and the relative viability (PC-14; first compound 0.3162 µM) was 0.87. It also gave a relative viability (PC-14; first compound 1 µM) of 0.387, a relative viability (LCLC-103H; first compound 0.01 µM) of 0.34 and a relative viability (LCLC-103H; first compound 0.03162 µM) of 0.335. The relative viability (LCLC-103H; first compound 0.1 µM) was 0.37, the relative viability (LCLC-103H; first compound 0.3162 µM) was 0.357 and the relative viability (LCLC-103H; first compound 1 µM) was 0.293. For the same molecule, the relative viability (NCI-H2126; first compound 0.01 µM) was 0.496, the relative viability (NCI-H2126; first compound 0.03162 µM) was 0.52 and the relative viability (NCI-H2126; first compound 0.1 µM) was 0.551. For the same molecule, the relative viability (NCI-H2126; first compound 0.3162 µM) was 0.623, the relative viability (NCI-H2126; first compound 1 µM) was 0.515 and the relative viability (NCI-H2342; first compound 0.01 µM) was 0.578. The relative viability (NCI-H2342; first compound 0.03162 µM) was 0.582, the relative viability (NCI-H2342; first compound 0.1 µM) was 0.56 and the relative viability (NCI-H2342; first compound 0.3162 µM) was 0.664. For the same molecule, the relative viability (NCI-H2342; first compound 1 µM) was 0.648, the relative viability (SK-LU-1; first compound 0.01 µM) was 0.661 and the relative viability (SK-LU-1; first compound 0.03162 µM) was 0.551. The relative viability (SK-LU-1; first compound 0.1 µM) was 0.681, the relative viability (SK-LU-1; first compound 0.3162 µM) was 0.586 and the relative viability (SK-LU-1; first compound 1 µM) was 0.285. For the same molecule, the relative viability (NCI-H1666; first compound 0.01 µM) was 0.582, the relative viability (NCI-H1666; first compound 0.03162 µM) was 0.562 and the relative viability (NCI-H1666; first compound 0.1 µM) was 0.574. For the same molecule, the relative viability (NCI-H1666; first compound 0.3162 µM) was 0.644, the relative viability (NCI-H1666; first compound 1 µM) was 0.507 and the relative viability (HCC-78; first compound 0.01 µM) was 0.646. It also gave a relative viability (HCC-78; first compound 0.03162 µM) of 0.732, a relative viability (HCC-78; first compound 0.1 µM) of 0.663 and a relative viability (HCC-78; first compound 0.3162 µM) of 0.805. It also gave a relative viability (HCC-78; first compound 1 µM) of 0.631, a relative viability (LXF-289; first compound 0.01 µM) of 0.506 and a relative viability (LXF-289; first compound 0.03162 µM) of 0.542. The relative viability (LXF-289; first compound 0.1 µM) was 0.547, the relative viability (LXF-289; first compound 0.3162 µM) was 0.53 and the relative viability (LXF-289; first compound 1 µM) was 0.424. For the same molecule, the relative viability (EPLC-272H; first compound 0.01 µM) was 0.324, the relative viability (EPLC-272H; first compound 0.03162 µM) was 0.3 and the relative viability (EPLC-272H; first compound 0.1 µM) was 0.236. For the same molecule, the relative viability (EPLC-272H; first compound 0.3162 µM) was 0.296, the relative viability (EPLC-272H; first compound 1 µM) was 0.288 and the relative viability (ChaGo-K-1; first compound 0.01 µM) was 0.541. It also gave a relative viability (ChaGo-K-1; first compound 0.03162 µM) of 0.45, a relative viability (ChaGo-K-1; first compound 0.1 µM) of 0.585 and a relative viability (ChaGo-K-1; first compound 0.3162 µM) of 0.47. The relative viability (ChaGo-K-1; first compound 1 µM) was 0.474, the relative viability (EKVX; first compound 0.01 µM) was 0.223 and the relative viability (EKVX; first compound 0.03162 µM) was 0.227. For the same molecule, the relative viability (EKVX; first compound 0.1 µM) was 0.243, the relative viability (EKVX; first compound 0.3162 µM) was 0.258 and the relative viability (EKVX; first compound 1 µM) was 0.248. It also gave a relative viability (NCI-H322M; first compound 0.01 µM) of 0.77, a relative viability (NCI-H322M; first compound 0.03162 µM) of 0.779 and a relative viability (NCI-H322M; first compound 0.1 µM) of 0.791. The relative viability (NCI-H322M; first compound 0.3162 µM) was 0.784, the relative viability (NCI-H322M; first compound 1 µM) was 0.668 and the relative viability (LK-2; first compound 0.01 µM) was 0.638. For the same molecule, the relative viability (LK-2; first compound 0.03162 µM) was 0.289, the relative viability (LK-2; first compound 0.1 µM) was 0.239 and the relative viability (LK-2; first compound 0.3162 µM) was 0.304. The relative viability (LK-2; first compound 1 µM) was 0.223, the relative viability (NCI-H1975; first compound 0.01 µM) was 0.429 and the relative viability (NCI-H1975; first compound 0.03162 µM) was 0.398. For the same molecule, the relative viability (NCI-H1975; first compound 0.1 µM) was 0.481, the relative viability (NCI-H1975; first compound 0.3162 µM) was 0.408 and the relative viability (NCI-H1975; first compound 1 µM) was 0.401. For the same molecule, the relative viability (NCI-H1563; first compound 0.01 µM) was 0.662, the relative viability (NCI-H1563; first compound 0.03162 µM) was 0.66 and the relative viability (NCI-H1563; first compound 0.1 µM) was 0.689. The relative viability (NCI-H1563; first compound 0.3162 µM) was 0.582, the relative viability (NCI-H1563; first compound 1 µM) was 0.549 and the relative viability (NCI-H23; first compound 0.01 µM) was 0.804. For the same molecule, the relative viability (NCI-H23; first compound 0.03162 µM) was 0.878, the relative viability (NCI-H23; first compound 0.1 µM) was 0.791 and the relative viability (NCI-H23; first compound 0.3162 µM) was 0.879. It also gave a relative viability (NCI-H23; first compound 1 µM) of 0.781, a relative viability (RERF-LC-KJ; first compound 0.01 µM) of 0.389 and a relative viability (RERF-LC-KJ; first compound 0.03162 µM) of 0.463. It also gave a relative viability (RERF-LC-KJ; first compound 0.1 µM) of 0.469, a relative viability (RERF-LC-KJ; first compound 0.3162 µM) of 0.471 and a relative viability (RERF-LC-KJ; first compound 1 µM) of 0.469. For the same molecule, the relative viability (NCI-H2405; first compound 0.01 µM) was 0.38, the relative viability (NCI-H2405; first compound 0.03162 µM) was 0.412 and the relative viability (NCI-H2405; first compound 0.1 µM) was 0.518. For the same molecule, the relative viability (NCI-H2405; first compound 0.3162 µM) was 0.427, the relative viability (NCI-H2405; first compound 1 µM) was 0.315 and the relative viability (SW 900; first compound 0.01 µM) was 0.529. For the same molecule, the relative viability (SW 900; first compound 0.03162 µM) was 0.678, the relative viability (SW 900; first compound 0.3162 µM) was 0.48 and the relative viability (SW 900; first compound 1 µM) was 0.364.

Source: the supplement of paper PMC10307832
